Experimental data reported in ChEMBL document CHEMBL4665745, “Bioactive Lignans from Hypoestes aristata” (J Nat Prod, 2020).
The source made the active and inactive calls. The rule behind the calls is not given here.

Tests used:
[1] = molecular target: Human immunodeficiency virus type 1 protease (Human immunodeficiency virus 1) (UniProt Q72874); assay: Inhibition of HIV-1 protease at <60 uM after 1 hr by fluorescence assay; details: dose microM <60, time 1.0 hrs
[2] = molecular target: Human immunodeficiency virus type 1 protease (Human immunodeficiency virus 1) (UniProt Q72874); assay: Inhibition of HIV-1 protease at >100 uM after 1 hr by fluorescence assay; details: dose microM >100, time 1.0 hrs
MDA-MB-231 [3] = assay: Cytotoxicity against human MDA-MB-231 cells assessed as reduction in cell viability at >90 uM after 48 hrs; type: functional, cell-based; details: dose microM >90, time 48.0 hrs
MDA-MB-231 [4] = assay: Cytotoxicity against human MDA-MB-231 cells assessed as reduction in cell viability after 48 hrs; type: functional, cell-based
MCF7 [5] = assay: Cytotoxicity against human MCF7 cells assessed as reduction in cell viability after 48 hrs; type: functional, cell-based
MCF7 [6] = assay: Cytotoxicity against human MCF7 cells assessed as reduction in cell viability at <90 uM after 48 hrs; type: functional, cell-based; details: dose microM <90, time 48.0 hrs

inhibition [1] | inhibition [2] | SMILES | Activity (MDA-MB-231 [3]) | Activity (MDA-MB-231 [4]) | Activity (MCF7 [5]) | Activity (MCF7 [6])
 | Active | COc1cc([C@H]2OC[C@H]3[C@@H]2CO[C@@H]3c2cc(OC)c(O)c(OC)c2)ccc1O |  |  |  | 
 | Active | CC(=O)O[C@@H](c1ccc2c(c1)OCO2)[C@H]1COC(O)[C@@H]1[C@@H](OC(C)=O)c1ccc2c(c1)OCO2 (stereo partly specified) | inactive | Active | Active | inactive

The next lines start with the compound.

SMILES | inhibition [1] | inhibition [2] | Activity (MDA-MB-231 [3]) | Activity (MDA-MB-231 [4]) | Activity (MCF7 [5]) | Activity (MCF7 [6])
O=C1OC[C@H](Cc2ccc3c(c2)OCO3)[C@H]1Cc1ccc2c(c1)OCO2 | Active | Active |  |  |  | 
CC(=O)O[C@H](c1ccc2c(c1)OCO2)[C@H]1COC(=O)[C@@H]1[C@H](O)c1ccc2c(c1)OCO2 |  | Active | inactive | Active | Active | inactive
CC(=O)N[C@H](C(=O)N[C@H](C(=O)N[C@@H](CC(C)C)[C@@H](O)CC(=O)N[C@@H](C)C(=O)N[C@@H](CC(C)C)[C@@H](O)CC(=O)O)C(C)C)C(C)C |  |  | inactive |  |  | inactive
CC(=O)O[C@H](c1ccc2c(c1)OCO2)[C@H]1COC(=O)[C@@H]1[C@H](OC(C)=O)c1ccc2c(c1)OCO2 | Active | Active | inactive | Active | Active | inactive
